# pIC50: −log10 of the molar value.
# Target: T1, IKKε (Homo sapiens, UniProt Q14164)
# T1 construct: His-tag; made in house; host or cells: Sf9 insect cells
# T1 sequence (Q14164 1-716): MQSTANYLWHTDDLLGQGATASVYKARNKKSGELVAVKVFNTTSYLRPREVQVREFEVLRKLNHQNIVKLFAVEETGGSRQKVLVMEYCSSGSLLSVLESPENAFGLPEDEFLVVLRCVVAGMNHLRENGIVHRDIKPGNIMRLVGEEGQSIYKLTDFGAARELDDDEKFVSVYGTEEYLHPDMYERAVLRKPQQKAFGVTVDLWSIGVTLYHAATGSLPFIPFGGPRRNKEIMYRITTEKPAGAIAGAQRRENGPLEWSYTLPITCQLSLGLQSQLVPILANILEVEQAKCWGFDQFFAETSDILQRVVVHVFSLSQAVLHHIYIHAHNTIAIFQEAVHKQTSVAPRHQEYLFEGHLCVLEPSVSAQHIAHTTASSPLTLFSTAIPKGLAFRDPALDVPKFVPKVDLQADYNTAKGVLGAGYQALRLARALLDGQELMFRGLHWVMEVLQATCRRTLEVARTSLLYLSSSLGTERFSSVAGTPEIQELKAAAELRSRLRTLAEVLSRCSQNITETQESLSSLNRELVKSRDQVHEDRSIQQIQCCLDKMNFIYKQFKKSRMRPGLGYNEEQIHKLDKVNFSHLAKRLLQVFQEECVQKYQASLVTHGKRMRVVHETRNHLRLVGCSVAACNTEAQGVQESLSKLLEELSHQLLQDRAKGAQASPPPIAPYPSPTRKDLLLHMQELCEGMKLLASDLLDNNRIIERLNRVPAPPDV
# Experiment: In-vitro IKKε kinase assay ([γ33]ATP filter-plate)
# Type: biochemical
# Conditions: text bins; read-out: IC50 for inhibition of the kinase activity of IKKε
# Method: IKKε enzyme was produced as a His-tag fusion in Sf9 cells and used at a final concentration of […]. TBK1 enzyme was produced as a His-tag fusion in Sf9 cells and used at a final concentration of 0.1 μg/ml. Kinase reactions were carried out in reaction buffer using myelin basic protein (Millipore, Ballerica, Mass.) or casein (Sigma, St. Louis, Mo.) as substrate at an ATP concentration equal to twice the Km,ATP value for each enzyme, corresponding to 32 μM ATP for IKKε and 60 μM ATP for TBK1, in the presence of 0.3 μCi [γ^33]ATP (PerkinElmer, Waltham, Mass.). Final enzyme concentrations were 0.1 or 0.015 μg/ml (IKKε) and 0.1 or 0.02 μg/ml (TBK1), representing “normal” and “sensitized” assay conditions respectively. Test compounds (or DMSO solvent as a control) were added prior to initiation of the reactions. Reactions were terminated after 30-45 minutes by adding 3% phosphoric acid. Terminated reactions were transferred to P-81 cellulose phosphate filterplates (Whatman, Inc., Piscataway, N.J.) and washed with 1% phosphoric acid on a vacuum apparatus. After air drying, scintillant (PerkinElmer, Waltham, Mass.) was added and the plates were read on a PerkinElmer TopCount NXT instrument. Counts were normalized to DMSO controls after background subtraction.
row,SMILES,pIC50
1,"COc1ccc(-c2ccnc(Nc3ccc(NC(=O)NCCCO)cc3)n2)cc1C#N [Example 7, 1-(4-{[4-(3-Cyano-4-methoxyphenyl)pyrimidin-2-yl]amino}phenyl)-3-(3-hydroxypropyl)urea]",6.30 to 7.30
2,"COc1ccc(-c2ccnc(Nc3ccc(NC(=O)NC4CCCC4)cc3)n2)cc1C#N [Example 8, 1-(4-{[4-(3-Cyano-4-methoxyphenyl)pyrimidin-2-yl]amino}phenyl)-3-cyclopentylurea]",6.30 to 7.30
3,"COc1ccc(-c2ccnc(Nc3ccc(NC(=O)NCCO)cc3)n2)cc1C#N [Example 9, 1-(4-{[4-(3-Cyano-4-methoxyphenyl)pyrimidin-2-yl]amino}phenyl)-3-(2-hydroxyethyl)urea]",6.30 to 7.30
4,"COc1ccc(-c2ccnc(Nc3ccc(NC(=O)NCCCN)cc3)n2)cc1C#N [Example 10, 1-(3-Aminopropyl)-3-(4-{[4-(3-cyano-4-methoxyphenyl)pyrimidin-2-yl]amino}phenyl) urea]",6.30 to 7.30
5,"CCN1CCN(c2ccc(-c3ccnc(Nc4ccc(N5CCNC(=O)C5)c(OC)c4)n3)cc2C#N)CC1 [Example 36, 2-(4-Ethylpiperazin-1-yl)-5-(2-{[3-methoxy-4-(3-oxopiperazin-1-yl)phenyl]amino}pyrimidin-4-yl)benzonitrile]",6.30 to 7.30
6,"COc1ccc(COc2ccc(-c3ccnc(Nc4ccc(N5CCOCC5)cc4)n3)cc2C#N)cc1 [Example 40, 2-[(4-Methoxybenzyl)oxy]-5-(2-{[4-(morpholin-4-yl)phenyl]amino}pyrimidin-4-yl)benzonitrile]",6.30 to 7.30
7,"N#Cc1cc(-c2ccnc(Nc3ccc(N4CCOCC4)cc3)n2)ccc1OCC1CCN(C(=O)C2(N)CC2)CC1 [Example 42, 2-({1-[(1-aminocyclopropyl)carbonyl]piperidin-4-yl}methoxy)-5-(2-{[4-(morpholin-4-yl)phenyl]amino}pyrimidin-4-yl)benzonitrile]",6.30 to 7.30
8,"N#Cc1cc(-c2ccnc(Nc3ccc(N4CCOCC4)cc3)n2)ccc1NC(=O)N1CCCCC1 [Example 44, N-[2-cyano-4-(2-{[4-(morpholin-4-yl)phenyl]amino}pyrimidin-4-yl)phenyl]piperidine-1-carboxamide]",6.30 to 7.30
9,"N#Cc1cc(-c2ccnc(Nc3ccc(N4CCOCC4)cc3)n2)ccc1NC(=O)NC1CCC(O)CC1 (centres unmarked) [Example 46, 1-[2-cyano-4-(2-{[4-(morpholin-4-yl)phenyl]amino}pyrimidin-4-yl)phenyl]-3-(4-hydroxycyclohexyl) urea]",6.30 to 7.30
10,"N#Cc1cc(Cl)cc(-c2ccnc(Nc3ccc(N4CCOCC4)cc3)n2)c1 [Example 50, 3-Chloro-5-(2-{[4-(morpholin-4-yl)phenyl]amino}pyrimidin-4-yl)benzonitrile]",7.30 to 8.30
11,"N#Cc1cc(-c2ccnc(Nc3ccc(N4CCOCC4)cc3)n2)ccc1NC(=O)N1CCOCC1 [Example 52, N-[2-cyano-4-(2-{[4-(morpholin-4-yl)phenyl]amino}pyrimidin-4-yl)phenyl]morpholin-4-carboxamide]",6.30 to 7.30
12,"N#Cc1cc(-c2ccnc(Nc3ccc(N4CCOCC4)cc3)n2)ccc1NC(=O)C1CCCC1 [Example 56, N-[2-cyano-4-(2-{[4-(morpholin-4-yl)phenyl]amino}pyrimidin-4-yl)phenyl] cyclopentane-carboxamide]",7.30 to 8.30
13,"N#Cc1cc(-c2ccnc(Nc3ccc(N4CCOCC4)cc3)n2)ccc1OC1CCN(C(=O)[C@H](O)C(F)(F)F)CC1 [Example 57, 5-(2-{[4-(Morpholin-4-yl)phenyl]amino}pyrimidin-4-yl)-2-({1-[(2S)-3,3,3-trifluoro-2-hydroxypropanoyl]piperidin-4-yl}oxy)benzonitrile]",7.30 to 8.30
14,"COc1ccc(Nc2nccc(-c3cccc(C#N)c3)n2)cc1F [Example 66, 3-{2-[(3-Fluoro-4-methoxyphenyl)amino]pyrimidin-4-yl}benzonitrile]",6.30 to 7.30
15,CN(C)C1CCN(c2ccc(-c3ccnc(Nc4ccc(N5CCOCC5)cc4)n3)cc2C#N)C1 (centres unmarked) [Example 69],6.30 to 7.30
16,"CC(C)(O)C(=O)N1CCC(Oc2ccc(-c3ccnc(Nc4ccc(N5CCOCC5)cc4)n3)cc2C#N)CC1 [Example 74, 2-{[1-(2-Hydroxy-2-methylpropanoyl)piperidin-4-yl]oxy}-5-(2-{[4-(morpholin-4-yl)phenyl]amino}pyrimidin-4-yl)benzonitrile]",6.30 to 7.30
17,COc1ccc(-c2ccnc(Nc3ccc(N4CCCC4C(=O)N(C)C)c(OC)c3)n2)cc1C#N (centres unmarked) [Example 87],7.30 to 8.30
18,"N#Cc1cc(-c2ccnc(Nc3ccc(N4CCOCC4)cc3)n2)ccc1NC(=O)NC1CCOCC1 [Example 92, 1-[2-cyano-4-(2-{[4-(morpholin-4-yl)phenyl]amino}pyrimidin-4-yl)phenyl]-3-(tetrahydro-2H-pyran-4-yl)urea]",7.30 to 8.30
19,"N#Cc1cc(-c2ccnc(Nc3ccc(N4CCOCC4)cc3)n2)ccc1NC(=O)C1CCOCC1 [Example 97, N-[2-cyano-4-(2-{[4-(morpholin-4-yl)phenyl]amino}pyrimidin-4-yl)phenyl]tetrahydro-2H-pyran-4-carboxamide]",6.30 to 7.30

# Results, then the compound that gave them:
row,pIC50,SMILES
1,6.30 to 7.30,"CC(C)NC(=O)N1CCC(Oc2ccc(-c3ccnc(Nc4ccc(N5CCOCC5)cc4)n3)cc2C#N)CC1 [Example 37, 4-[2-Cyano-4-(2-{[4-(morpholin-4-yl)phenyl]amino}pyrimidin-4-yl)phenoxy]-N-(propan-2-yl)piperidine-1-carboxamide]"
2,7.30 to 8.30,"N#Cc1cc(-c2ccnc(Nc3ccc(N4CCOCC4)cc3)n2)ccc1OCC1CNC1 [Example 39, 2-(azetidin-3-ylmethoxy)-5-(2-{[4-(morpholin-4-yl)phenyl]amino}pyrimidin-4-yl)benzonitrile]"
3,7.30 to 8.30,"CC(C)NC(=O)NCCOc1ccc(-c2ccnc(Nc3ccc(N4CCOCC4)cc3)n2)cc1C#N [Example 47, 1-{2-[2-cyano-4-(2-{[4-(morpholin-4-yl)phenyl]amino}pyrimidin-4-yl)phenoxy]ethyl}-3-propan-2-ylurea]"
4,6.30 to 7.30,"CC(=O)N1CC(Oc2ccc(-c3ccnc(Nc4ccc(N5CCOCC5)cc4)n3)cc2C#N)C1 [Example 53, 2-[(1-acetylazetidin-3-yl)oxy]-5-(2-{[4-(morpholin-4-yl)phenyl]amino}pyrimidin-4-yl)benzonitrile]"
5,7.30 to 8.30,"CN(C)CCOc1ccc(-c2ccnc(Nc3ccc(N4CCOCC4)cc3)n2)cc1C#N [Example 58, 2-[2-(Dimethylamino)ethoxy]-5-(2-{[4-(morpholin-4-yl)phenyl]amino}pyrimidin-4-yl)benzonitrile]"
6,6.30 to 7.30,"N#Cc1cc(-c2ccnc(Nc3ccc(N4CCOCC4)cc3)n2)ccc1NC(=O)NC1CCCCC1 [Example 61, 1-[2-cyano-4-(2-{[4-(morpholin-4-yl)phenyl]amino}pyrimidin-4-yl)phenyl]-3-cyclohexylurea]"
7,6.30 to 7.30,"CCC(C)(C)C(=O)Nc1ccc(-c2ccnc(Nc3ccc(N4CCOCC4)cc3)n2)cc1C#N [Example 77, N-[2-cyano-4-(2-{[4-(morpholin-4-yl)phenyl]amino}pyrimidin-4-yl)phenyl]-2,2-dimethylbutanamide]"
8,6.30 to 7.30,"CN(C)C(=O)Nc1ccc(-c2ccnc(Nc3ccc(N4CCOCC4)cc3)n2)cc1C#N [Example 81, 3-[2-cyano-4-(2-{[4-(morpholin-4-yl)phenyl]amino}pyrimidin-4-yl)phenyl]-1,1-dimethylurea]"
9,6.30 to 7.30,"COC(=O)C(C)(C)COc1ccc(-c2ccnc(Nc3ccc(N4CCOCC4)cc3)n2)cc1C#N [Example 84, methyl 3-[2-cyano-4-(2-{[4-(morpholin-4-yl)phenyl]amino}pyrimidin-4-yl)phenoxy]-2,2-dimethylpropanoate]"
10,6.30 to 7.30,N#Cc1cc(-c2ccnc(Nc3ccc(N4CCOCC4)cc3)n2)ccc1OCCNC(=O)CCO [Example 95]
11,7.30 to 8.30,CO[C@@H](C)C(=O)N1CCC(Oc2ccc(-c3ccnc(Nc4ccc(N5CCOCC5)cc4)n3)cc2C#N)CC1 [Example 99]
12,6.30 to 7.30,"N#Cc1cc(-c2ccnc(Nc3ccc(N4CCOCC4)cc3)n2)ccc1OC1CN(C=O)C1 [Example 101, 2-[(1-formylazetidin-3-yl)oxy]-5-(2-{[4-(morpholin-4-yl)phenyl]amino}pyrimidin-4-yl)benzonitrile]"
13,7.30 to 8.30,"N#Cc1cc(-c2ccnc(Nc3ccc(N4CCOCC4)cc3)n2)ccc1Cl [Example 102, 2-Chloro-5-(2-{[4-(morpholin-4-yl)phenyl]amino}pyrimidin-4-yl)benzonitrile]"

# — US20150352108A1, “AMINO-PYRIMIDINE COMPOUNDS AS INHIBITORS OF TBK1 AND/OR IKK EPSILON” (Alzheimer's Institute of America, priority 2009, published 2015)
